This note sets out measurements from patent US20230095026A1, “METHOD FOR STIMULATING AND INDUCING CHANGES IN ENVIRONMENT AROUND AGED SKIN CELLS” (AMOREPACIFIC CORPORATION, priority 2019, published 2023).

In one assay the test system is pigment-forming cells. Description: Change in morphology and cell number of UVB-aged pigment-forming cells, SA-β-gal staining. In kind it is cell-based, human. The procedure: Subsequently, the cells were treated with a compound represented by Chemical Formula E (Sigma-Aldrich Co., Ltd.).
A further assay has as its system Fibroblast cells. Description: Change in the number of UVB-aged fibroblast cells, SA-β-gal staining. The assay is classed as cell-based, human.

Regarding `O=C(O)[C@]1(O)C[C@@H](O)[C@@H](O)[C@H](O)C1` [Chemical Formula E], the number of cells entry in the assay with pigment-forming cells (UVB-aged pigment-forming cells treated with the compound, FIGS. 1 and 2) is on record as “the number of cells increased again”; with Fibroblast cells (UVB-aged fibroblasts treated with the compound, FIGS. 4 and 5), “the number of cells increased again depending on the concentration”. The “ratio of the number of the aged cells stained with SA-β-gal to the total number of cells” value in the assay on pigment-forming cells (UVB-aged pigment-forming cells, FIG. 3) is on record as “decreased depending on the concentration”; with Fibroblast cells (UVB-aged fibroblasts, FIG. 6), “decreased depending on the concentration”.
